# Results: a melting point compilation (Tetko et al.; mined from patent text by program, amines drawn as free bases though some values may be those of a salt)
row,melting point [°C],SMILES
1,194 to 199,O=C(O)C1CCC(c2ccc(OCc3ccc4ccccc4n3)cc2)(c2ccc(OCc3ccc4ccccc4n3)cc2)CC1
2,113 to 114,Cc1ccc(C2CC(=O)c3c(C)coc3C2)cc1 (stereo not drawn)
3,98,Clc1ccccc1NC(c1ccccc1)c1ccccc1
4,158 to 159,Cc1cc(C(O)=S)cc(N)c1C(=O)c1ccccc1
5,232 to 234,O=c1[nH]c(CCN2CCN(c3ccccc3)CC2)c(-c2ccc(F)cc2)[nH]1
6,234 to 236,O=C(O)CCCCn1c(=O)c2cc(O)ccc2n(CCCCN2CCC(OC(c3ccccc3)c3ccccc3)CC2)c1=O
7,142 to 144,CCN(Cc1ccccc1)C(=O)Cn1c2cccc(OCc3ccccc3)c2c2c(COC)c(C(=O)OC(C)C)ncc21
8,52 to 55,Nc1c(Cl)cc(C(O)CNCCCCCCOCCCc2ccc(Br)cn2)cc1Cl (stereo not drawn)
9,60 to 63,CCc1cn(C(CC)C(=O)N(C)C)nc1-c1ccccc1Cl (stereo not drawn)
10,204 to 206,O=C(O)c1ccccc1-c1cc(-c2ccccc2)[nH]n1
11,199,CSc1ccc(C(=O)Nc2ccc3ccc(Cl)nc3n2)cc1
12,80 to 82,CCCC(=O)C(=O)NCC(=O)c1cccnc1
13,185,O=C(/C=C/c1cccc(S(=O)(=O)N2CCN(Cc3ccccc3)CC2)c1)NO
14,231 to 232,NC(=O)[C@@H]1[C@H](Nc2c(Br)cnc3[nH]c(-c4ccoc4)nc23)[C@H]2C=C[C@@H]1C2
15,189 to 191,CC1(CN2CCN(N=Cc3ccc(OC(F)(F)F)cc3)CC2)Cn2cc([N+](=O)[O-])nc2O1 (stereo not drawn)
16,170 to 171,CN(C(=O)Cn1c(-c2ccc(Cl)cc2)nc2cccnc21)c1ccccc1
17,220 to 224,Cc1nc2c(C#N)cnn2c2c1CCN2C(C)(C)C
18,136 to 138,CCOC(=O)C1(CNC(=O)C=CC(Cc2ccc3ccccc3c2)N(C)C(=O)c2cc(C(F)(F)F)cc(C(F)(F)F)c2)CCCC1 (stereo not drawn)
19,63 to 64,OC(=S)CCc1ccc(Cl)c(Cl)c1
20,116 to 117,CCCCCCCCCCCCCCCCCCc1ccc(S(=O)(=O)Nc2nncs2)cc1
21,212 to 214,Cc1ccccc1-c1ccc(C(=O)N2Cc3ccc(C(=O)C(Cl)(Cl)Cl)n3Cc3ccccc32)cc1C
22,95 to 96,COc1ccc(OC)c(Nc2c(-c3ccc(S(C)(=O)=O)cc3)cnn(CC(F)(F)F)c2=O)c1
23,> 300,COc1ccc(-c2[nH]nc3c2C(=O)c2c(NC(=O)CN4CCC(N)CC4)cccc2-3)cc1
24,65 to 66,CCOC(=O)c1ccccc1NC(=O)CBr

row,melting point [°C],SMILES
1,215 to 216,CC(C(=O)NCC(F)(F)C(F)(F)F)C(=O)NC1C(=O)Nc2cc(F)ccc2OC1C (stereo not drawn)
2,118 to 120,COc1nc(Br)nc(OC)n1
3,203 to 205,COC(=O)c1nnn(Cc2ccccc2F)c1C(=O)OC
4,170 to 173,CN(C)Cc1cc2ccc(C(=O)NN)cc2n1S(C)(=O)=O
5,> 260,O=C1c2cc(Sc3ccccc3)c(Sc3ccccc3)cc2C(=O)c2c1c(O)c1cc(Sc3ccccc3)c(Sc3ccccc3)cc1c2O
6,83 to 85,CCCCCCCCCCCCCCCCCCNS(=O)(=O)c1cccc(C(F)(F)F)c1
7,142 to 143,O=C(c1ccc(F)cc1)N1CCC[C@H](c2nc(-c3ccc4ccccc4c3)no2)C1
8,126,CCn1c(Oc2ccc(F)cc2)nnc1[C@@H](C)N(C)S(=O)(=O)c1ccc(Cl)c(Cl)c1
9,120 to 122,COC1=CC(=O)C2CC=CCC2C1=O (stereo not drawn)
10,160 to 163,CCc1nc2c(N)nc3ccccc3c2n1CCOCCS(C)(=O)=O
11,209 to 210,COc1cc2c(cc1OC)OCCC(C(=O)O)=C2
12,168 to 169,CN1C(=O)C(=O)c2cc([N+](=O)[O-])cc(C(F)(F)F)c21
13,165 to 166,N#Cc1ccc(OCC(O)CN2CC3CC(C2)CN(C(=O)OCc2ccc([N+](=O)[O-])cc2)C3)cc1 (stereo not drawn)
14,89 to 97,COC(=O)c1cccc(CN2C(=O)C3(COc4cc5c(cc43)OCCO5)c3ccccc32)c1 (stereo not drawn)
15,173 to 175,CCOC(=O)c1ccc(NC(=O)C=C(c2ccccc2)c2ccc(Cl)cc2)cc1
16,120 to 122,O=C1CCC(=O)N1CC#CCn1ccnc1
17,312 to 314,COc1ccc(-c2c(O)c3ccc(Cl)cc3[nH]c2=O)cc1OC
18,102 to 107,CC(C)(C)OC(=O)CC(NC(=O)C1CCCN2C(=O)CCC(NC(=O)c3ccccc3)C(=O)N12)C(=O)COC(=O)c1c(Cl)cccc1Cl (stereo not drawn)
19,99 to 100,O=[N+]([O-])c1ccccc1C(=C(Br)Br)c1ccc(F)cc1
20,126 to 128,Cc1cc(Br)cnc1CCCCN=C(NCCCc1c[nH]cn1)NC(=O)c1ccccc1
21,169 to 172,CC(O)c1cc2c3ccccc3n(C)c(=O)n2n1 (stereo not drawn)
22,118 to 120,O=C1c2ccccc2C(=O)N1C1CN(C(c2ccccc2)c2ccccc2)C1
23,210 to 216,C#CCCCC(=O)Nc1nc2nn(C)cc2c2nc(-c3ccco3)nn12
24,150 to 152,CN1CCN(c2nn(-c3ccc(Cl)cc3Cl)c3ccccc23)CC1

row,melting point [°C],SMILES
1,98 to 99,O=C(O)CCCCc1nn(-c2ccccc2)c2c1CCC2
2,86 to 88,CCc1c(C(=O)OC)c(C(=O)OC)c2n1-c1ccccc1C2
3,112 to 113,COC(=O)CCC(=O)Nc1cccc(OCc2cc3ccccc3o2)c1
4,252,OCc1cccnc1N1CCN(c2nc3cc(C(F)(F)F)cc(Cl)c3[nH]2)CC1
5,212 to 214,CCCNC(=Nc1ccccc1N1CCOCC1)NCCC
6,190 to 191,O=C(Cn1c(-c2ccc(Cl)cc2)nc2cccnc21)Nc1ccccn1
7,> 300,CNC(=O)c1cccc(Nc2ncnc3[nH]cc(C(=O)c4ccccc4C)c23)c1
8,230 to 235,Cc1cc(NC(=O)NC(=O)c2c(Cl)cccc2Cl)nc(C)c1-c1ccccc1
9,171 to 174,CC1(C)Oc2ccc(C#N)cc2C(OC(=O)C2CCCN2S(=O)(=O)c2cccc([N+](=O)[O-])c2)C1Br (stereo not drawn)
10,99 to 102,COc1cc(OC)nc(Oc2cccc3c2C(=O)OC3OCC#N)n1 (stereo not drawn)
11,131 to 133,CC1(C)CN(C2CCN(CCc3ccc(F)cc3)CC2)c2cc(CN)ccc21
12,162 to 165,CCc1oc2ccccc2c1C(=O)NCc1ccc2c(Br)c(OC(Cc3ccccc3)C(=O)O)ccc2c1 (stereo not drawn)
13,> 300,Nc1c(S(=O)(=O)c2ccc(O)cc2)c2nccnc2n2ccnc12
14,265 to 268,CN1CN=C2C=C(Nc3ccc(I)cc3F)C(F)(C(N)=O)C=C21 (stereo not drawn)
15,158 to 160,c1ccc(CN2CCN(Cc3n[nH]c4c3CCc3ccccc3-4)CC2)cc1
16,232 to 233,CCCSc1cccc2c1C(=O)c1cccc(SCCC)c1C2=O
17,160,COC(=O)NNC(=O)c1ccc(Cl)cc1
18,174 to 176,CSC1C(=O)Nc2c(Nc3ccccc3)cccc21 (stereo not drawn)
19,110,Cc1cncc(C(=O)OC(C)c2nc3c(c(=O)n(C)c(=O)n3C)n2C)c1 (stereo not drawn)
20,270 to 271,CCCOc1ccc(S(=O)(=O)N2CCN(C)CC2)cc1-c1nc2cc(N)c([N+](=O)[O-])cc2c(=O)[nH]1
21,189 to 193,CC(C)c1cc(O)n[nH]1
22,63 to 65,CC1(CCc2ccccc2)OC(=O)CC(=O)O1
23,96 to 97,CC(F)(F)c1cccc(C(=O)O)c1
24,50 to 51,CCC(O)(c1ccc(OCc2ccccc2)cc1)c1cccc(C(F)(F)F)c1 (stereo not drawn)

row,melting point [°C],SMILES
1,182 to 184,Cc1c(C=NO)c2ccccc2n1-c1ccc(O)c(F)c1
2,225 to 226,Cc1oc(=O)oc1Cn1cc[nH]c(=O)c1=O
3,90 to 92,CN(C)S(=O)(=O)c1ccc(Br)cc1
4,59 to 61,Cc1ncc(CO)cc1OC(=O)c1cccs1
5,250,O=C(O)c1oc(-c2ccccc2)cc(=O)c1Cl
6,133 to 135,Cc1ccc(S(=O)(=O)NCCc2ccc(C(=O)CN3CCN(c4ccncc4)CC3)cc2)cc1
7,109 to 110,OC1CCCCC1Oc1cccc(COc2cccc3cccnc23)c1 (stereo not drawn)
8,83,N#Cc1ccc(C=O)cc1F
9,111 to 113,C[Si](C)(C)OC1(C(=O)c2ccccc2)CC2CCC(C1)N2CCCC(c1ccc(F)cc1)c1ccc(F)cc1 (stereo not drawn)
10,183 to 184,CCNC(=O)c1sc(-n2ccc(O)cc2=O)cc1C
11,73 to 83,COc1ccc(COC(=O)c2nc(-c3ccc(Cl)c(OC)c3F)cc(N)c2Cl)cc1
12,200 to 204,Cc1cc(C)n(C)c(=O)c1C(=O)O
13,101 to 103,CCCCCCCCCCCCCCCCCCOc1cc(C(=O)O)cc([N+](=O)[O-])c1
14,200 to 202,CCCCNC(=O)Nc1ccc(N2CCCC2)cc1C(=O)NCC1CCN(C(c2ccccc2)c2ccccc2)CC1
15,130 to 131,CC(C)Cc1cncc(O)n1
16,175 to 176,COc1cc(COc2ccc3nc(NC(=O)OCC(O)CO)cn3n2)cc(OC)c1OC (stereo not drawn)
17,152 to 153,CC(C)c1cc(C(=O)Nc2ccc(C(=O)O)c(Cl)c2)oc1C(C)C
18,182 to 184,CC(C)Nc1nc2c(F)c(F)c(F)cc2[nH]1
19,203,CCOC(=O)NC(=O)C1c2ccccc2Oc2ccc(Br)cc21 (racemic)
20,91 to 93,CCCCCCCCCCCCCCCCCCS(=O)c1cc2ccccc2cc1OC(C)=O (stereo not drawn)
21,130 to 131,[N-]=[N+]=C(S(=O)(=O)C1CCCCC1)S(=O)(=O)C1CCCCC1
22,152 to 154,COC(=O)COc1cc2c(c(Cl)c1C)C(=O)C1(CCCC1)C2=O
23,146 to 148,CCOC(=O)c1sc2nc(CBr)c(CC)c(=O)n2c1C
24,213 to 214,O=C(Nc1cc(C(F)(F)F)cc(C(F)(F)F)c1)c1ccccc1SSc1ccccc1C(=O)Nc1cc(C(F)(F)F)cc(C(F)(F)F)c1

row,SMILES,melting point [°C]
1,O=C1c2ccccc2C(Nc2ccccc2)N1CCCN1CC=C(c2ccccc2)CC1 (stereo not drawn),119
2,Cc1cccc2c(C(=O)C(=O)NC3=CC(=O)OC3)c(C)n(Cc3ccc(Cl)cc3)c12,283 to 285
